According to patent publication US9163007B2, “5-substituted indazoles as kinase inhibitors” (AbbVie Inc., priority 2007, dated 2015):
Several values for one entry are separate records, joined by “and”; a condition that tells them apart may be missing. Identical values can stand only once.

Columns and labels:
rats [1] = assay: Spinal nerve (L5/L6) ligation model of neuropathic pain (Chung); type: in vivo, rat; conditions: i.p. or p.o., doses ranging from 1-150 mg/kg
Source text: Spinal Nerve (L5/L6) Ligation Model of Neuropathic Pain.
As previously described in detail by Kim and Chung (Kim S. H.; Chung J. M. An experimental model for peripheral neuropathy produced by segmental spinal nerve ligation in the rat. Pain 1992, 50, 355-363), a 1.5 cm incision was made dorsal to the lumbosacral plexus. In anesthetized rats, the paraspinal muscles (left side) were separated from the spinous processes, the L5 and L6 spinal nerves isolated, and tightly ligated with 3-0 silk threads. Following hemostasis, the wound was sutured and coated with antibiotic ointment. The rats were allowed to recover and then placed in a cage with soft bedding for 14 days before behavioral testing for mechanical allodynia.

rats [2] = assay: Sciatic nerve ligation model of neuropathic pain (Bennett); type: in vivo, rat; conditions: i.p. or p.o., doses ranging from 1-150 mg/kg
Source text: Sciatic Nerve Ligation Model of Neuropathic Pain.
As previously described in detail by Bennett and Xie (Bennett G. J.; Xie Y-K. A peripheral mononeuropathy in rat that produces disorders of pain sensation like those seen in man. Pain 1988, 33, 87-107), in anesthetized rats, a 1.5 cm incision was made 0.5 cm below the pelvis and the biceps femoris and the gluteous superficialis (right side) were separated. The sciatic nerve was exposed, isolated, and four loose ligatures (5-0 chromic catgut) with 1 mm spacing were placed around it. The rats were allowed to recover and then placed in a cage with soft bedding for 14 days before behavioral testing for mechanical allodynia as described above. In addition, animals were also tested for cold allodynia by dipping their hind paw in a cold-water bath (4.5° C.) and determining the paw withdrawal latency.

IL-13 = assay: Murine asthma model: IL-13 measurement in bronchoalveolar lavage fluid; type: in vivo, mouse
Experimental: Animals were sensitized to OVA on day 0 and 7 with an i.p. injection of 8 μg OVA in 2 mg alum. On days 14 and 16, animals received intra-nasal challenge of 0.3 μg OVA in 50 μl sterile PBS. Animals were dosed i.p. with a representative compound of formula (I), Example 179, (dissolved with 0.5% HMPC, 0.02% Tween 80 in water) twice per day at doses of 3, 10, and 30 mg/kg/dose beginning the afternoon of day 13. The final dose of compound was administered 30 minutes prior to measurement of airway hyperresponsiveness (AHR). Dexamethasone was administered orally once a day on days 13-17 at a dose of 3 mg/kg. All endpoints were analyzed on day 17, 24 hours after the second OVA challenge. AHR was assessed using unconscious restrained whole body plethysmography. Briefly, a surgical plane of anesthesia was induced with an i.p. injection of ketamine and xylazine. A tracheal canula was surgically inserted between the third and fourth tracheal rings. Spontaneous breathing was prevented by an intravenous (i.v.) jugular vein injection of pancuronium bromide. Animals were placed in a whole body plethysmograph (Buxco) and mechanically ventilated with 0.2 mL room air at 150 breaths per minute with a volume-controlled ventilator (Harvard Apparatus). Pressure in the lung and flow within the plethysmograph were measured using transducers, and lung resistance was calculated as pressure/flow using Biosystem Xa software. Baseline resistance as well as resistance following challenge with methacholine (3, 10 or 30 mg/mL) that was delivered with an inline ultrasonic-nebulizer were measured. Upon completion of pulmonary function testing, the lungs were lavaged 4 times with 0.5 mL sterile PBS. Lavage fluid was analyzed for IL-13, AMCase, Muc5ac and cellular infiltrates. The efficacy of the test compound was tested at doses of 3, 10 and 30 mg/kg b.i.d. (6, 20, 60 mg/kg/day). […]
IL-13 concentrations in the bronchoalveolar lavage fluid (BAL) were measured by ELISA (R & D Systems) according to manufacturer's instructions.

MUC5AC = assay: Murine asthma model: MUC5AC measurement in BAL; type: in vivo, mouse; design: dose or concentration left out as unconfirmed
Experimental: Animals were sensitized to OVA on day 0 and 7 with an i.p. injection of 8 μg OVA in 2 mg alum. On days 14 and 16, animals received intra-nasal challenge of 0.3 μg OVA in 50 μl sterile PBS. […] The final dose of compound was administered 30 minutes prior to measurement of airway hyperresponsiveness (AHR). Dexamethasone was administered orally once a day on days 13-17 at a dose of 3 mg/kg. All endpoints were analyzed on day 17, 24 hours after the second OVA challenge. AHR was assessed using unconscious restrained whole body plethysmography. Briefly, a surgical plane of anesthesia was induced with an i.p. injection of ketamine and xylazine. A tracheal canula was surgically inserted between the third and fourth tracheal rings. […] Pressure in the lung and flow within the plethysmograph were measured using transducers, and lung resistance was calculated as pressure/flow using Biosystem Xa software. Baseline resistance as well as resistance following challenge with methacholine (3, 10 or 30 mg/mL) that was delivered with an inline ultrasonic-nebulizer were measured. […] Lavage fluid was analyzed for IL-13, AMCase, Muc5ac and cellular infiltrates. […]
Concentrations of the mucin gene MUC5AC were quantitated by ELISA format. […] The reaction was stopped using 1M H2SO4 and then read in a spectrophotometer at OD 450 nm.

Balb/c mice = assay: Murine model of acute asthma: airway hyperresponsiveness (lung resistance); type: in vivo, mouse; conditions: OVA-challenged mice
Source text: Murine Asthma Model of Acute Asthma
Female Balb/c mice were purchased from Taconic and housed at Abbott Bioresearch Center. Animals were utilized at 8-12 weeks of age. All protocols were approved by the Institutional Animal Care and Use Committee (IACUC). Dexamethasone (Dex), and ovalbumin (OVA) were purchased from Sigma. Endotoxin was removed from ovalbumin using DetoxiGel (Pierce) according to manufacturer's protocol and the final material contained less than 0.1 EU/mg protein. Alum Imject was purchased from Pierce.
Animals were sensitized to OVA on day 0 and 7 with an i.p. injection of 8 μg OVA in 2 mg alum. On days 14 and 16, animals received intra-nasal challenge of 0.3 μg OVA in 50 μl sterile PBS. […] All endpoints were analyzed on day 17, 24 hours after the second OVA challenge. AHR was assessed using unconscious restrained whole body plethysmography. […] Pressure in the lung and flow within the plethysmograph were measured using transducers, and lung resistance was calculated as pressure/flow using Biosystem Xa software. Baseline resistance as well as resistance following challenge with methacholine (3, 10 or 30 mg/mL) that was delivered with an inline ultrasonic-nebulizer were measured. […] Lavage fluid was analyzed for IL-13, AMCase, Muc5ac and cellular infiltrates. […]

[3] = system: Acidic mammalian chitinase (AMCase); assay: Murine asthma model: AMCase measurement in BAL fluid; type: in vivo, mouse; conditions: 30 mg/kg group, p<0.01
Experimental: Animals were sensitized to OVA on day 0 and 7 with an i.p. injection of 8 μg OVA in 2 mg alum. On days 14 and 16, animals received intra-nasal challenge of 0.3 μg OVA in 50 μl sterile PBS. Animals were dosed i.p. with a representative compound of formula (I), Example 179, (dissolved with 0.5% HMPC, 0.02% Tween 80 in water) twice per day at doses of 3, 10, and 30 mg/kg/dose beginning the afternoon of day 13. The final dose of compound was administered 30 minutes prior to measurement of airway hyperresponsiveness (AHR). Dexamethasone was administered orally once a day on days 13-17 at a dose of 3 mg/kg. All endpoints were analyzed on day 17, 24 hours after the second OVA challenge. AHR was assessed using unconscious restrained whole body plethysmography. Briefly, a surgical plane of anesthesia was induced with an i.p. injection of ketamine and xylazine. A tracheal canula was surgically inserted between the third and fourth tracheal rings. […] Pressure in the lung and flow within the plethysmograph were measured using transducers, and lung resistance was calculated as pressure/flow using Biosystem Xa software. Baseline resistance as well as resistance following challenge with methacholine (3, 10 or 30 mg/mL) that was delivered with an inline ultrasonic-nebulizer were measured. […] Lavage fluid was analyzed for IL-13, AMCase, Muc5ac and cellular infiltrates. […]

Compound	inhibition of tactile allodynia (rats [1])	inhibition of tactile allodynia (rats [2])	inhibition of IL-13 induction in BAL fluid (IL-13; 3 mg/kg dose group)	inhibition of IL-13 induction in BAL fluid (IL-13; 10 mg/kg dose group)	inhibition of IL-13 induction in BAL fluid (IL-13; 30 mg/kg dose, p<0.05)	reduction of MUC5AC levels (MUC5AC)	methacholine-induced airways resistance (Balb/c mice; i.p. twice per day, tested 3, 10, 30 mg/kg, printed 'doses ranging between 1 and 100 mg/kg', OVA 6.90, PBS 4.65)	inhibition of AMCase activity induction in BAL fluid [3]	methacholine-induced airways resistance (Balb/c mice; 3 mg/kg orally once a day)
O=C(N[C@H](CO)c1ccccc1)c1cc(-c2ccc3[nH]ncc3c2)on1 [Example 160, N-[(1S)-2-hydroxy-1-phenylethyl]-5-(1H-indazol-5-yl)isoxazole-3-carboxamide]	greater than 30%	greater than 30%	–	–	–	–	–	–	–
O=C(N[C@H](CCO)c1ccccc1)c1cc(-c2ccc3[nH]ncc3c2)on1 [Example 179, N-[(1R)-3-hydroxy-1-phenylpropyl]-5-(1H-indazol-5-yl)isoxazole-3-carboxamide]	greater than 30%	greater than 30%	no significant inhibition	no significant inhibition	60%	35%	4.55 cm H2O/mL/sec and 4.77 cm H2O/mL/sec	45%	–
C[C@@H]1C[C@H]2[C@@H]3CCC4=CC(=O)C=C[C@]4(C)[C@@]3(F)[C@@H](O)C[C@]2(C)[C@@]1(O)C(=O)CO [dexamethasone, Dexamethasone, reference compound]	–	–	–	–	–	–	–	–	4.76 cm H2O/mL/sec
